Reference: EP1662258A1, “A substrate free in vitro protein kinase assay” (Sirenade Pharmaceuticals AG, priority 2004, dated 2006)
Where “and” joins values, the source holds several entries; their conditions need not be identical. Equal values may be shown once. Entries after “also recorded” stand apart in the source; their conditions may differ.

Columns and labels:
Src kinase (Srcv1) = Src kinase (Srcv1) (Homo sapiens, UniProt P12931); test: Src protein tyrosine kinase auto-phosphorylation (autoactivation) assay, Srcv1 immobilised on Ni-NTA plates, anti p-Tyr chemoluminiscence readout
Method: The assay will be performed as a solid phase assay, which can be done by immobilisation of the kinase (Srcv1) via its His6-tag on Ni-NTA coated 96 wells (Qiagen), as this assay system allows washing steps. Thus it was evaluated, whether it is possible to detect auto-phosphorylated src kinase, immobilized on Ni-NTA coated plates with an HRP labeled anti p-Tyr antibody. Therefore, Src kinase (1.0µM) was incubated for 30 min either in the presence and absence of 50 µM ATP at RT in incubation buffer (50 mM Tris/HCl, pH 7.2, 10 mM MgCl2). Afterwards the solution was diluted to 1.0, 0.5, 0.25 and 0.0 µM final src protein concentration in PBS and incubated for 30 min (V= 200µl) on NiNTA coated plates at RT on a rotation shaker (300 rpm). After removal of the supernatant and 3 times washing with 200 µl PBS-T, immobilized, phosphorylated src kinase was detected. Therefore, a solution of HRP-labeled anti p-Tyr antibody (Abcam) (200 µl, 1:2000 diluted in PBST-0.5% BSA) was added to the wells and the plate was incubated for 30 min at RT °C, 300 rpm. After removal of the supernatant and 3 times washing with 200 µl PBS-T, chemoluminiscence development buffer was added (200 µl of a 1:1 mixture of ECL substrate, Amersham) and chemoluminiscence signal was quantified using Wallac1420 Multilabel counter (Victor^2).
Afterwards 100 µl assay buffer containing 100 µM ATP was added (except for the negative control which was incubated with 100 µl assay buffer without ATP) and the mixture was transfered to Ni-NTA coated plates and further incubated for 20 min at RT on a rotation shaker (300 rpm). The degree of src kinase auto-phosphorylation was detected with an anti p-Tyr-antibody as described above (see Figure 3a).
The solution was transfered on NiNTA plates and incubated for 30 min with 100 µl assay buffer containing 100 µM ATP for the auto-phosphorylation of src. The degree of src kinase auto-phosphorylation was detected with an anti p-Tyr-antibody as described above (see Figure 3b).

Src kinase Srcv2 = Src kinase Srcv2 (Homo sapiens, UniProt P12931); test: Src protein tyrosine kinase auto-phosphorylation (autoactivation) assay with Srcv2
Method: After mixing the kinase with the compound the final DMSO concentration was 40%. Then, 190 µl of the preincubated compound/kinase solution are transfered to 96 well Ni-NTA plates (Ni-NTA HisSorb™ plates, white, Qiagen (cat.No.35081) and incubated for 30 min at room temperature on a rotation shaker at 300 rpm to allow binding of the kinase to the wells. The kinase/compound solution containing unbound kinase and compound is carefully replaced by 200 µl of DMSO free initiation buffer (50 mM Tris/HCl, pH 7.2, 10 mM MgCl2, 100 µM ATP) per well and the plate is incubated for 20 min at room temperature on a rotation shaker at 300 rpm.
The initiation buffer is then removed carefully and the plate is washed two times with PBS-Tween (PBS-T) buffer (50 mM potassium phosphate, pH 7.2, 150 mM NaCl, 0.05 % Tween 20) (200 µl per well per washing step).
The antibody solution is removed carefully and the plate is washed three times with 200 µl PBS-T buffer (200 µl per well per washing step).
• 2.7.1 The assay was used for qualitative and quantitative analysis of different compound classes. […] The assay was performed either manually or in a semiautomatic approach using the EP3 robotor (Perkin Elmer) for automated pipetting steps. […] Solution was removed and 200 µl assay buffer, containing 100µM ATP was added and the plate was incubated for 30 min at RT on a rotation shaker. Solution was removed and wells were washed 3 times with 200µl PBST. Afterwards 200 µl 1:2000 diluted anti p-Tyr antibody in PBST-0.5% BSA was added and the plate was incubated for 30 min at RT on a rotation shaker. The degree of src kinase auto-phosphorylation was detected with an anti p-Tyr-antibody as described above. […] The DMSO concentration was 30 %. […] The measurements were carried out either as unicates or as triplicates. The standard deviation is shown by error bars.
In order to get information about the quality of the assay the z' was determined for the assay. For determination of the maximal counts src v2 in the absence of inhibitor was used.

`Cc1ccc(-c2nn(C(C)(C)C)c3ncnc(N)c23)cc1` [PP1] was tested, and the “inhibition of auto-phosphorylation of src kinase (in words)” value (Src kinase (Srcv1); 100 µl src kinase (1.0 µM), compound 1.25 mM, 30% DMSO, 100 µM ATP, Figure 3b) was “potently inhibits; also recorded: strongest inhibition”, the “inhibition of the kinase activity (in words)” value (Src kinase (Srcv1); Src kinase (100µl, 2.0 µM), PP1 1.25 mM, 10% DMSO, ATP 100 µM, Figure 3A) was “clear inhibition” and the “chemoluminiscence signal (counts), mean, first series” value (Src kinase Srcv2) was 5948. The “chemoluminiscence signal (counts), mean, second series” value (Src kinase Srcv2) was 5700, the “chemoluminiscence signal (counts), single values, first series” value (Src kinase Srcv2) was 5816 and 5922 and 5781 and 6275 and the “chemoluminiscence signal (counts), single values, second series” value (Src kinase Srcv2) was 6060 and 5465 and 5523 and 5752. The “inhibition of Srcv2 kinase (dose response curves, in words)” value (Src kinase Srcv2) was “showed inhibition”.
